Test results published in patent EP1038880B1, “Androstanes and pregnanes for allosteric modulation of GABA receptor” (priority 1994, dated 1995).

Tests used:
[1] = system: N.I.H. Swiss-Webster mice; test: Elevated plus-maze; assay type: in vivo; settings: Mus musculus, ip, read-out: % Control
Source text: The theoretical basis for the elevated plus-maze test is similar to that of the light/dark transition test. […] The apparatus consists of two open-arms and two enclosed-arms. The elevated plus-maze test allows for two measures of anxiety, the number of entries into the open-arms and the time spent on the open-arms, both expressed as a percentage of the total number of entries and time spent in/on both the open-arms and enclosed-arms.
Male N.LH. Swiss-Webster mice (Harlan, Indianapolis, IN) weighing 15-20 g were housed four per cage in polyethylene cages with sawdust bedding. The colony mom was environmentally controlled (22°C) with a 12^- hr light/dark cycle (0600-1800 hr). Food and water were available ad libitum, except during testing. The experiments were run from 0700-1500 hr and groups were counterbalance for time of day effects. Mice were only administered drug or vehicle once.
The apparatus included two open arms perpendicular to two enclosed arms elevated 50 cm from the floor. Each arm was 50 cm long and the walls of the enclosed arms were 40 cm tall. The maze was made completely of black plexiglass. Incandescent 200 W light bulbs were above each of the open arms to produce a strong contrast between the open arms and the enclosed arms.
Ten minutes after an injection, the N.I.H. Swiss-Webster mice were placed in the center of the plus-maze facing an open arm. During the 5 min test period, the number of entries onto the open arms and the enclosed arms, and the time spent in the open arms and enclosed arms were measured. All four paws had to be within an arm for the dependent variable to be measured. Therefore, the time spent in the center of the maze is not counted, so the total time spent in the open arms and the enclosed arms may not equal 5 min.

[2] = molecular target: GR complex; test: [35S]TBPS binding assay (inhibition of [35S]TBPS binding, cerebral cortex P2 homogenate); design: species or system rat; settings: for IC50: 2 nM [35S]TBPS, rat cerebral cortex P2 homogenate; for IMAX: maximum inhibition of [35S]TBPS binding
Method in brief: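 Rat (male Sprague-Dawley) cortical P2 homogenate (0.5 mg protein) in 50 mM Na/K phosphate pH 7.4, 200 mM NaCl, incubated with 2 nM [35S]TBPS plus steroid test compounds (DMSO) in presence of GABA plus (+)bicuculline, 25°C, 90 min. Filtration, scintillation counting; nonspecific binding defined with […].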

[3] = system: metrazol induced convulsions; test: animal or person; assay type: in vivo, mice; settings: Mus musculus, read-out: % Protected; for responders at 10 mg/kg: 10 min, IP, 10 minutes prior to metrazol (85 mg/kg)
Description: Experiments were also performed to determine the physiological relevance of neuroactive steroid and GABA receptor interactions by assessing the ability of the compounds of and used in the invention to prevent metrazol induced convulsions in mice. Mice were injected with various doses of the test compounds of the invention, 10 minutes prior to the injection of metrazol. The time to onset of myoclomis (presence of forelimb clonic activity) induced by metrazol was determined by observing each mouse for a period of 30 minutes. […] Table 6: Antimetrazol Activity of Neuroactive Steroids in Mice
The anticonvulsant tests are similar to that described above. […] The number of animals with tonic and/or clonic convulsions was recorded. In the maximal electroshock test, 50 mA of current at 60 Hz was delivered through corneal electrodes for 200 msec to induce tonic seizure. The ability of compounds to abolish the tonic component was defined as the endpoint. General CNS depression potential was determined by a rotorod test 10 minutes after the injection of compounds where the number of mice staying on a rotating (6 rpm) rod for 1 minute in one of the three trials was determined. […] Table 7. Anticonvulsant Activity of Exemplified Neuroactive Steroids and those of Selected Clinically Useful Anticonvulsants in Mice

[4] = system: Bovine Uteral Progesterone Receptors; test: Inhibition of 3H-progesterone binding, uterus cytosol; settings: competitor 10^-6M; 3H-progesterone 0.15 nM
Description: The data presented were obtained by performing assays in accordance with the procedures described in et al. 1988 previously to determine the effect of progesterone metabolites and their derivatives and the progestin R5020 on the binding of [^3H]R5020 to the progesterone receptor in rat uterus (Gee et al. 1988).
^3H-progesterone (0.15 nM) was incubated with the rat uterus cytosol in the presence of the test compounds. The specific binding were determined after incubation and compared to the control incubation without the compounds. The data are expressed as percent inhibition of binding.
In Table 3, rats were adrenalectomized 3 days prior to sacrifice. To isolate the mineralocorticoid receptor, brain cytosol fractions were prepared as describe in Gee, et al. 1988. The drugs were incubated with 3 nM of ^3H-aldosterone (the specific ligand for the mineralocorticoid receptor) in the presence of the selective type II agonist RU28362 (0.5 µM) which blocks ^3H-aldosterone binding to the type II (glucocorticoid) receptors. Table 2. Inhibition of 3H-Progesterone Binding to the Bovine Uteral Progesterone Receptors

| SMILES | response vs control in vivo at 10 mg/kg [1] | IC50 [2] | IMAX [2] | responders at 10 mg/kg [3] | % of Inhibition [4] | responders at 40 mg/kg ([3]; PO, 40 mg/kg, water) |
| --- | --- | --- | --- | --- | --- | --- |
| CC(=O)[C@H]1CC[C@H]2[C@@H]3CC[C@@H]4C[C@@](O)(C#Cc5ccc(C#N)cc5)CC[C@]4(C)[C@H]3CC[C@]12C [3β-(4'-Cyanophenyl)ethynyl-3α-hydroxy-5β-pregnan-20-one] | 169% | 0.073 µM | 92% | 43.7% |  |  |
| CC(=O)[C@H]1CC[C@H]2[C@@H]3CC[C@@H]4C[C@@](O)(C#CCn5ccnn5)CC[C@]4(C)[C@H]3CC[C@]12C [3α-Hydroxy-3β-[3-(1'H-1,2,3-triazol-1'-yl)-1-propynyl]-5β-pregnan-20-one] | 116% | 0.655 µM | 102% | 25% |  |  |
| CC(=O)[C@H]1CC[C@H]2[C@@H]3CC[C@@H]4C[C@@](O)(C#CCn5cccn5)CC[C@]4(C)[C@H]3CC[C@]12C [3α-hydroxy-3β-[3-(1'H-pyrazol-1'-yl)-1-propynyl]-5β-pregnan-20-one] | 116% | 0.081 µM | 98% | 25% |  |  |
| CC(=O)CCCC#C[C@@]1(O)CC[C@@]2(C)[C@H](CC[C@@H]3[C@@H]2CC[C@]2(C)[C@@H](C(C)=O)CC[C@@H]32)C1 [3α-hydroxy-3β-[6'-oxo-1'-heptynyl]-5β-pregnan-20-one] | 130% | 0.09 µM | 101% | 62.5% |  |  |
| CCC(=O)[C@@]1(C)CC[C@H]2[C@@H]3CCC4=CC(=O)CCC4=C3CC[C@@]21C [Example R5020, promegesterone] |  |  |  |  | 100% |  |
| C[C@@]1(O)CC[C@@]2(C)[C@@H](CC[C@@H]3[C@@H]2CC[C@]2(C)[C@@H](C(=O)Cn4cncn4)CC[C@@H]32)C1 [3α-Hydroxy-3β-methyl-21-(1',2',4'-triazolyl)-5α-pregnan-20-one] | 153% | 0.125 µM | 105% | 87.5% |  |  |
| CC(=O)[C@H]1CC[C@H]2[C@@H]3CC[C@@H]4C[C@@](O)(C#Cc5cccs5)CC[C@]4(C)[C@H]3CC[C@]12C [3α-hydroxy-3β-(2'-thienyl)ethynyl-5β-pregnan-20-one] | 148% | 0.059 µM | 100% | 37.5% |  |  |
| C[C@@]1(O)CC[C@@]2(C)[C@@H](CC[C@@H]3[C@@H]2CC[C@]2(C)[C@@H](C(=O)CSS(=O)(=O)[O-])CC[C@@H]32)C1.[Na+] [sodium S-(3α-hydroxy-3β-methyl-5α-pregnan-20-on-21-yl) thiosulfate] | 125% | 0.151 µM | 101% | 62.5% |  |  |
| CC(=O)[C@H]1CC[C@H]2[C@@H]3CC[C@@H]4C[C@@](O)(C#Cc5ccc(C)cc5)CC[C@]4(C)[C@H]3CC[C@]12C [3α-hydroxy-3β-(4'-methylphenylethynyl)-5β-pregnan-20-one] | 148% | 0.088 µM | 84% | 75% |  |  |
| CC(=O)[C@H]1CC[C@H]2[C@@H]3CC[C@@H]4C[C@@](O)(C#CCCCO)CC[C@]4(C)[C@H]3CC[C@]12C [3β-(5'-hydroxy-1'-pentynyl)-3α-hydroxy-5β-pregnan-20-one] | 137% | 0.058 µM | 100% | 12.5% |  |  |
| C[C@@]1(O)CC[C@@]2(C)[C@@H](CC[C@@H]3[C@@H]2CC[C@]2(C)[C@@H](C(=O)Cn4ccnc4)CC[C@@H]32)C1 [3α-hydroxy-21-(1'-imidazolyl)-3β-methyl-5α-pregnan-20-one] | 144% | 0.097 µM | 95% | 75% |  |  |
| CC(=O)[C@H]1CC[C@H]2[C@@H]3CC[C@@H]4C[C@@](O)(C#Cc5ccccn5)CC[C@]4(C)[C@H]3CC[C@]12C [3α-Hydroxy-3β-(2-pyridyl)ethynyl-5β-pregnan-20-one] | 123% | 0.108 µM | 98% | 37.5% |  |  |
| CC(=O)c1ccc(C#C[C@@]2(O)CC[C@@]3(C)[C@H](CC[C@@H]4[C@@H]3CC[C@]3(C)[C@@H](C(C)=O)CC[C@@H]43)C2)s1 [3β-(5-Acetylthien-2-yl)ethynyl-3α-hydroxy-5β-pregnan-20-one] | 83% | 0.052 µM | 89% | 25% |  |  |
| C[C@]12CC[C@](O)(C#CCCO)C[C@H]1CC[C@@H]1[C@@H]2CC[C@]2(C)[C@@H](C(=O)CSS(=O)(=O)O)CC[C@@H]12 [sodium S-[3α-hydroxy-3β-(4'-hydroxybutynyl)-5β-pregnan-20-on-21-yl] thiosulfate] | 135% | 0.107 µM | 97% |  |  | 33.3% |
| C#CCOCC#C[C@@]1(O)CC[C@@]2(C)[C@H](CC[C@@H]3[C@@H]2CC[C@]2(C)[C@@H](C(C)=O)CC[C@@H]32)C1 [3α-hydroxy-3β-[3-(2'-propynyloxy)-1-propynyl]-5β-pregnan-20-one] | 178% | 0.028 µM | 105% | 50% |  |  |
